Measurements as given in US8445492B2, “Method for inhibiting growth of cancer cells and cell telomere and diseases of cell proliferation by using heteroannelated anthraquinone derivative compounds” (National Defense Medical Center, priority 2008, dated 2013).
Where two headings read alike, the source gives them in different places.

How the values were obtained:
Type in all cases: cell-based
[1] = tested on: HOP-92; experiment: in vitro test at 1.0×10^−5 M, Non-small cell lung cancer cell; conditions: 1.0×10^−5 molal concentration (M)
[2] = tested on: HCC-2998; experiment: in vitro test at 1.0×10^−5 M, Colorectal cancer cell; conditions: 1.0×10^−5 molal concentration (M)
[3] = tested on: MCF7; experiment: in vitro test at 1.0×10^−5 M, Breast cancer cell; conditions: 1.0×10^−5 molal concentration (M)
[4] = tested on: MDA-MB-435; experiment: in vitro test at 1.0×10^−5 M, Breast cancer cell; conditions: 1.0×10^−5 molal concentration (M)
[5] = tested on: MDA-MB-468; experiment: in vitro test at 1.0×10^−5 M, Breast cancer cell; conditions: 1.0×10^−5 molal concentration (M)
[6] = tested on: T-47D; experiment: in vitro test at 1.0×10^−5 M, Breast cancer cell; conditions: 1.0×10^−5 molal concentration (M)
[7] = tested on: IGROV1; experiment: in vitro test at 1.0×10^−5 M, Ovary cancer cell; conditions: 1.0×10^−5 molal concentration (M)
[8] = tested on: OVCAR-4; experiment: in vitro test at 1.0×10^−5 M, Ovary cancer cell; conditions: 1.0×10^−5 molal concentration (M)
[9] = tested on: MOLT-4; experiment: in vitro test at 1.0×10^−5 M, Blood cancer cell; conditions: 1.0×10^−5 molal concentration (M)
[10] = tested on: ACHN; experiment: in vitro test at 1.0×10^−5 M, Kidney cancer cell; conditions: 1.0×10^−5 molal concentration (M)
[11] = tested on: SN12C; experiment: in vitro test at 1.0×10^−5 M, Kidney cancer cell; conditions: 1.0×10^−5 molal concentration (M)
[12] = tested on: UO-31; experiment: in vitro test at 1.0×10^−5 M, Kidney cancer cell; conditions: 1.0×10^−5 molal concentration (M)
[13] = tested on: LOX IMV1; experiment: in vitro test at 1.0×10^−5 M, Skin cancer cell; conditions: 1.0×10^−5 molal concentration (M)
[14] = tested on: MALME-3M; experiment: in vitro test at 1.0×10^−5 M, Skin cancer cell; conditions: 1.0×10^−5 molal concentration (M)
[15] = tested on: SK-MEL-2; experiment: in vitro test at 1.0×10^−5 M, Skin cancer cell; conditions: 1.0×10^−5 molal concentration (M)
[16] = tested on: UACC-257; experiment: in vitro test at 1.0×10^−5 M, Skin cancer cell; conditions: 1.0×10^−5 molal concentration (M)
[17] = tested on: UACC-62; experiment: in vitro test at 1.0×10^−5 M, Skin cancer cell; conditions: 1.0×10^−5 molal concentration (M)
[18] = tested on: SF-539; experiment: in vitro test at 1.0×10^−5 M, CNS cancer cell
[19] = tested on: U251; experiment: in vitro test at 1.0×10^−5 M, CNS cancer cell
[20] = tested on: different cancer cell lines; experiment: in vitro test at 1.0×10^−5 M, summary over the cell lines; parameters: unit not given here; conditions: 1.0×10^−5 molal concentration (M)
[21] = tested on: 786-0; experiment: NCI DTP in-vitro dose response, Renal Cancer
[22] = tested on: A498; experiment: NCI DTP in-vitro dose response, Renal Cancer
[23] = tested on: ACHN; experiment: NCI DTP in-vitro dose response, Renal Cancer; conditions: ACHN
[24] = tested on: CAKI-1; experiment: NCI DTP in-vitro dose response, Renal Cancer
[25] = tested on: SN12C; experiment: NCI DTP in-vitro dose response, Renal Cancer; conditions: SN12C
[26] = tested on: TK-10; experiment: NCI DTP in-vitro dose response, Renal Cancer
[27] = tested on: UO-31; experiment: NCI DTP in-vitro dose response, Renal Cancer
[28] = tested on: RXF 393; experiment: NCI DTP in-vitro dose response, Renal Cancer
[29] = 1.0×10^−5 molal concentration (M)
[30] = read-out: LC50 (the source's name)

With `CC1(C)Nc2ccc3c(c2N1)C(=O)c1ccccc1C3=O` [No. 20, 2,2-Dimethyl-2,3-dihydro-1H-anthra[1,2-d]imidazole-6,11-dione] the “inhibition effect on cancer cell line (Table 2 value)” value (shortened to “inhibition effect on cancer cell line”) [1] was 5.10, the “inhibition effect on cancer cell line” value [2] was 136.96 and the “inhibition effect on cancer cell line” value [3] was 83.58. The “inhibition effect on cancer cell line” value [4] was 124.56, the “inhibition effect on cancer cell line” value [5] was 77.25 and the “inhibition effect on cancer cell line” value [6] was 82.96. The “inhibition effect on cancer cell line” value [7] was −2.80, the “inhibition effect on cancer cell line” value [8] was 80.14 and the “inhibition effect on cancer cell line” value [9] was 116.41. For the same compound, the “inhibition effect on cancer cell line” value [10] was 50.17, the “inhibition effect on cancer cell line” value [11] was 91.98 and the “inhibition effect on cancer cell line” value [12] was 30.65. The “inhibition effect on cancer cell line” value [13] was 61.88, the “inhibition effect on cancer cell line” value [14] was 155.47 and the “inhibition effect on cancer cell line” value [15] was 8.04. For the same compound, the “inhibition effect on cancer cell line” value [16] was 118.22, the “inhibition effect on cancer cell line” value [17] was 67.58 and the “inhibition effect on cancer cell line” value [18] was 93.56. The “inhibition effect on cancer cell line” value [19] was 87.84 and the Mean [20] was 80.41.
`O=C1c2ccccc2C(=O)c2c1ccc1nccnc21` [No. 25, Naphthol-[2,3-f]quinoxaline-7,12-dione] was tested, and the “inhibition effect on cancer cell line” value [2] was −7.15, the “inhibition effect on cancer cell line” value [3] was 39.68 and the “inhibition effect on cancer cell line” value [4] was 102.03. For the same compound, the “inhibition effect on cancer cell line” value [5] was 75.28, the “inhibition effect on cancer cell line” value [6] was 85.19 and the “inhibition effect on cancer cell line” value [7] was 3.44. The “inhibition effect on cancer cell line” value [8] was 94.22, the “inhibition effect on cancer cell line” value [9] was 22.91 and the “inhibition effect on cancer cell line” value [10] was 46.52. For the same compound, the “inhibition effect on cancer cell line” value [11] was 64.65, the “inhibition effect on cancer cell line” value [12] was 51.45 and the “inhibition effect on cancer cell line” value [13] was 44.18. For the same compound, the “inhibition effect on cancer cell line” value [14] was 180.88, the “inhibition effect on cancer cell line” value [15] was 6.66 and the “inhibition effect on cancer cell line” value [16] was 91.06. The “inhibition effect on cancer cell line” value [17] was 90.47, the “inhibition effect on cancer cell line” value [18, 29] was 40.72 and the “inhibition effect on cancer cell line” value [19, 29] was 63.47. For the same compound, the Mean [20] was 69.36.
With `O=C1c2ccccc2C(=O)c2c1ccc1[nH]c(=O)c(=O)[nH]c21` [No. 26, Naphtho[2,3-f]quinoxaline-2,3,7,12 (1H,4H)-tetraone] the “inhibition effect on cancer cell line” value [1] was −15.08, the “inhibition effect on cancer cell line” value [2] was 77.59 and the “inhibition effect on cancer cell line” value [3] was 85.17. For the same compound, the “inhibition effect on cancer cell line” value [4] was 144.42, the “inhibition effect on cancer cell line” value [5] was 38.35 and the “inhibition effect on cancer cell line” value [6] was 87.10. The “inhibition effect on cancer cell line” value [7] was 13.36, the “inhibition effect on cancer cell line” value [8] was 103.31 and the “inhibition effect on cancer cell line” value [9] was 121.52. The “inhibition effect on cancer cell line” value [10] was 81.33, the “inhibition effect on cancer cell line” value [11] was 94.07 and the “inhibition effect on cancer cell line” value [12] was 61.43. For the same compound, the “inhibition effect on cancer cell line” value [13] was 96.94, the “inhibition effect on cancer cell line” value [14] was 149.83 and the “inhibition effect on cancer cell line” value [15] was 21.96. The “inhibition effect on cancer cell line” value [16] was 118.21, the “inhibition effect on cancer cell line” value [17] was 95.25 and the “inhibition effect on cancer cell line” value [18, 29] was 101.16. For the same compound, the “inhibition effect on cancer cell line” value [19, 29] was 95.92 and the Mean [20] was 100.83.
For `O=C1c2ccccc2C(=O)c2c1ccc1nccnc21` [TABLE 5-7], the TGI ([21]; 786-0) was over 1.00E−4, the “Percent Growth” value ([21]; 786-0, Log10 Concentration −4.0) was 15% and the “Percent Growth” value ([21]; 786-0, Log10 Concentration −5.0) was 47%. For the same compound, the “Percent Growth” value ([21]; 786-0, Log10 Concentration −6.0) was 104%, the “Percent Growth” value ([21]; 786-0, Log10 Concentration −7.0) was 101% and the “Percent Growth” value ([21]; 786-0, Log10 Concentration −8.0) was 98%. For the same compound, the GI50 ([21]; 786-0, read-out: GI50) was 8.87 µM, the CC50 ([21]; 786-0, read-out: LC50 (the source's name)) was over 100 µM and the TGI ([22]; A498) was 5.03E−5. The “Percent Growth” value ([22]; A498, Log10 Concentration −4.0) was −21%, the “Percent Growth” value ([22]; A498, Log10 Concentration −5.0) was 49% and the “Percent Growth” value ([22]; A498, Log10 Concentration −6.0) was 89%. For the same compound, the “Percent Growth” value ([22]; A498, Log10 Concentration −7.0) was 85%, the “Percent Growth” value ([22]; A498, Log10 Concentration −8.0) was 93% and the GI50 ([22]; A498, read-out: GI50) was 9.31 µM. For the same compound, the CC50 ([22]; A498, read-out: LC50 (the source's name)) was over 100 µM, the TGI [23] was over 1.00E−4 and the “Percent Growth” value ([23]; Log10 Concentration −4.0) was 2%. The “Percent Growth” value ([23]; Log10 Concentration −5.0) was 31%, the “Percent Growth” value ([23]; Log10 Concentration −6.0) was 77% and the “Percent Growth” value ([23]; Log10 Concentration −7.0) was 87%. The “Percent Growth” value ([23]; Log10 Concentration −8.0) was 98%, the GI50 ([23]; read-out: GI50) was 3.85 µM and the CC50 [23, 30] was over 100 µM. The TGI ([24]; CAKI-1) was over 1.00E−4, the “Percent Growth” value ([24]; CAKI-1, Log10 Concentration −4.0) was 4% and the “Percent Growth” value ([24]; CAKI-1, Log10 Concentration −5.0) was 39%. The “Percent Growth” value ([24]; CAKI-1, Log10 Concentration −6.0) was 87%, the “Percent Growth” value ([24]; CAKI-1, Log10 Concentration −7.0) was 89% and the “Percent Growth” value ([24]; CAKI-1, Log10 Concentration −8.0) was 94%. For the same compound, the GI50 ([24]; CAKI-1, read-out: GI50) was 5.83 µM, the CC50 ([24]; CAKI-1, read-out: LC50 (the source's name)) was over 100 µM and the TGI [25] was 9.27E−5. The “Percent Growth” value ([25]; Log10 Concentration −4.0) was −2%, the “Percent Growth” value ([25]; Log10 Concentration −5.0) was 57% and the “Percent Growth” value ([25]; Log10 Concentration −6.0) was 78%. For the same compound, the “Percent Growth” value ([25]; Log10 Concentration −7.0) was 71%, the “Percent Growth” value ([25]; Log10 Concentration −8.0) was 87% and the GI50 ([25]; read-out: GI50) was 13.2 µM. For the same compound, the CC50 [25, 30] was over 100 µM, the TGI ([26]; TK-10) was over 1.00E−4 and the “Percent Growth” value ([26]; TK-10, Log10 Concentration −4.0) was 2%. For the same compound, the “Percent Growth” value ([26]; TK-10, Log10 Concentration −5.0) was 36%, the “Percent Growth” value ([26]; TK-10, Log10 Concentration −6.0) was 83% and the “Percent Growth” value ([26]; TK-10, Log10 Concentration −7.0) was 85%. The “Percent Growth” value ([26]; TK-10, Log10 Concentration −8.0) was 102%, the GI50 ([26]; TK-10, read-out: GI50) was 5 µM and the CC50 ([26]; TK-10, read-out: LC50 (the source's name)) was over 100 µM. For the same compound, the TGI ([27]; UO-31) was 8.59E−5, the “Percent Growth” value ([27]; UO-31, Log10 Concentration −4.0) was −2% and the “Percent Growth” value ([27]; UO-31, Log10 Concentration −5.0) was 25%. For the same compound, the “Percent Growth” value ([27]; UO-31, Log10 Concentration −6.0) was 73%, the “Percent Growth” value ([27]; UO-31, Log10 Concentration −7.0) was 73% and the “Percent Growth” value ([27]; UO-31, Log10 Concentration −8.0) was 80%. It also gave a GI50 ([27]; UO-31, read-out: GI50) of 3.02 µM, a CC50 ([27]; UO-31, read-out: LC50 (the source's name)) of over 100 µM and a GI50 ([28]; RXF 393) of 6.43 µM. The TGI ([28]; RXF 393) was over 1.00E−4, the “Percent Growth” value ([28]; RXF 393, Log10 Concentration −4.0) was 7% and the “Percent Growth” value ([28]; RXF 393, Log10 Concentration −5.0) was 43%. The “Percent Growth” value ([28]; RXF 393, Log10 Concentration −6.0) was 81%, the “Percent Growth” value ([28]; RXF 393, Log10 Concentration −7.0) was 93% and the “Percent Growth” value ([28]; RXF 393, Log10 Concentration −8.0) was 97%. The CC50 ([28]; RXF 393, read-out: LC50 (the source's name)) was over 100 µM.
